Measured values taken from patent publication US9447136B2, “Semisynthetic derivatives of Nystatin A1” (BLIRT S.A., priority 2012, dated 2016).
In brackets after ≈: the same amount, converted by molar mass.

Experiments:
[1] = system: Aspergillus niger LOCK E201; test: Antifungal activity in vitro, serial dilution in RPMI 1640; assay type: cell-based; conditions: Table 2B
Method in brief: (§1)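 In buffered RPMI 1640 at pH 7.0, fungi were exposed to serially diluted compound (M27-A2 standard) and turbidity was recorded at 531 nm. Values relative to control: IC50 at 50%, MIC as lowest concentration at ≤20%.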

[2] = system: Candida albicans ATCC 10231; test: as above; assay type: cell-based; conditions: for Antifungal activity Candida albicans ATCC 10231 IC50 / Antifungal activity Candida albicans ATCC 10231 MIC: Table 2A, RPMI 1640, pH 7.0; for Antifungal activity Candida albicans ATCC 10231 IC50: A531 50% of control; for Antifungal activity Candida albicans ATCC 10231 MIC: A531 at most 20% of control; for MIC Candida albicans ATCC 10231: Table 2B
Method in brief: as §1

Candida arborea KKP 319 = test: as above; assay type: cell-based; conditions: Table 2B
Method in brief: as §1

[3] = system: Candida dubliniensis CBS 7987; test: as above; assay type: cell-based; conditions: Table 2B
Method in brief: as §1

[4] = system: Candida glabrata DSM 11226; test: as above; assay type: cell-based; conditions: Table 2A; RPMI 1640, pH 7.0
Method in brief: as §1

Candida krusei DSM 6128 = test: as above; assay type: cell-based; conditions: Table 2A; RPMI 1640, pH 7.0
Method in brief: as §1

[5] = system: Candida lipolytica KKP 322; test: as above; assay type: cell-based; conditions: Table 2B
Method in brief: as §1

[6] = system: Candida parapsilosis DSM 5784; test: as above; assay type: cell-based; conditions: Table 2B
Method in brief: as §1

[7] = system: Candida pseudotropicalis KKP 324; test: as above; assay type: cell-based; conditions: Table 2B
Method in brief: as §1

[8] = system: Candida quilliermondii DSM 11947; test: as above; assay type: cell-based; conditions: Table 2B
Method in brief: as §1

[9] = system: Candida stellatoidea CBS 1905; test: as above; assay type: cell-based; conditions: Table 2B
Method in brief: as §1

[10] = system: Candida tropicalis KKP 334; test: as above; assay type: cell-based; conditions: Table 2A; RPMI 1640, pH 7.0
Method in brief: as §1

[11] = system: Saccharomyces cerevisiae ATCC 9763; test: as above; assay type: cell-based; conditions: for Antifungal activity Saccharomyces cerevisiae ATCC 9763 MIC: Table 2A, RPMI 1640, pH 7.0, A531 at most 20% of control; for MIC Saccharomyces cerevisiae ATCC 9763: Table 2B
Method in brief: as §1

[12] = system: Trichoderma viride LOCK E159; test: as above; assay type: cell-based; conditions: Table 2B
Method in brief: as §1

Human erythrocytes = test: Hemotoxicity (hemolytic activity)
Method in brief: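 Human erythrocytes in saline (2×10^7/ml) were incubated with serially diluted compound at 37 °C for 30 min, then centrifuged. Released hemoglobin was read as A540 against 0.1% Triton X-100 as full hemolysis. EH50 is the interpolated concentration giving 50% of the control A540.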

Candida albicans 5674 = test: Antifungal activity towards resistant (MDR) strains; assay type: cell-based; conditions: C. albicans 5674 overexpressing CDR1 and CDR2
Method: (§2) The determination of antifungal activity was performed by the serial dilutions method in buffered RPMI 1640 medium, in a 96-wells microplates, according to the standard procedure (National Committee for Clinical Laboratory Standards. Reference method for broth dilution antifungal susceptibility testing of yeast, approved standard, 2nd ed. M27-A2 vol. 22 Wayne, Pa., 2002). The optical density of cells suspension was measured using a microplates reader (Victor^3, Perkin-Elmer) at the wavelength λ=660 nm (A660). On the basis of received results the diagrams on interrelation between the A660 value and the concentration of tested compound were made. From these graphs MIC values were read, that are the concentrations of tested compounds, in the presence at which A660 value is at most 20% of A660 value measured in control sample.

Candida albicans B3 = test: as above; assay type: cell-based; conditions: fluconazole sensitive, parent strain for B4
Method: as §2

Candida albicans B4 = test: as above; assay type: cell-based; conditions: fluconazole-resistant due to the overexpression of CaMDR1
Method: as §2

Candida albicans F2 = test: as above; assay type: cell-based; conditions: fluconazole sensitive, parent strain for F5
Method: as §2

Candida albicans F5 = test: as above; assay type: cell-based; conditions: fluconazole-resistant due to the overexpression of CaMDR1 and ERG11
Method: as §2

Candida albicans Gu4 = test: as above; assay type: cell-based; conditions: fluconazole sensitive, parent strain for Gu5
Method: as §2

Candida albicans Gu5 = test: as above; assay type: cell-based; conditions: fluconazole-resistant due to the overexpression of CDR1 and CDR2
Method: as §2

Candida albicans STY19 = test: as above; assay type: cell-based; conditions: 5674 mutant derivative, deletion of CDR1
Method: as §2

Candida albicans STY31 = test: as above; assay type: cell-based; conditions: 5674 mutant derivative, deletion of CDR1 and CDR2
Method: as §2

Candida albicans STY7 = test: as above; assay type: cell-based; conditions: 5674 mutant derivative, deletion of CDR2
Method: as §2

CCRF-CEM = test: Cytotoxic activity against mammalian cells in tissue culture (MTT); assay type: cell-based, human; conditions: CCRF-CEM, 120 h, MTT
Method in brief: (§3)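 Cells at 1.2×10^4/well were exposed to serial 2× DMSO dilutions for 120 h at 37 °C: CCRF-CEM in RPMI 1640 + 10% FBS, HepG2 in MEM + 10% FBS, LLC-PK1 in Medium 199 + 3% FBS. MTT was added for 4 h and A540 read. IC50 is the concentration halving A540 versus DMSO control.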

HepG2 = test: as above; assay type: cell-based, human; conditions: HepG2, 120 h, MTT
Method in brief: as §3

LLC-PK1 = test: as above; assay type: cell-based, pig; conditions: LLC-PK1, 120 h, MTT
Method in brief: as §3

Compound | MIC Aspergillus niger LOCK E201 [1] [µg/mL] | Antifungal activity Candida albicans ATCC 10231 IC50 [2] [µg/mL] | Antifungal activity Candida albicans ATCC 10231 MIC [2] [µg/mL] | MIC Candida albicans ATCC 10231 [2] [µg/mL] | MIC Candida arborea KKP 319 (Candida arborea KKP 319) [µg/mL] | MIC Candida dubliniensis CBS 7987 [3] [µg/mL] | Antifungal activity Candida glabrata DSM 11226 MIC [4] [µg/mL] | Antifungal activity Candida krusei DSM 6128 MIC (Candida krusei DSM 6128) [µg/mL] | MIC Candida lipolytica KKP 322 [5] [µg/mL] | MIC Candida parapsilosis DSM 5784 [6] [µg/mL] | MIC Candida pseudotropicalis KKP 324 [7] [µg/mL] | MIC Candida quilliermondii DSM 11947 [8] [µg/mL] | MIC Candida stellatoidea CBS 1905 [9] [µg/mL] | Antifungal activity Candida tropicalis KKP 334 MIC [10] [µg/mL] | Antifungal activity Saccharomyces cerevisiae ATCC 9763 MIC [11] [µg/mL] | MIC Saccharomyces cerevisiae ATCC 9763 [11] [µg/mL] | MIC Trichoderma viride LOCK E159 [12] [µg/mL] | MIC Candida albicans 5674 (Candida albicans 5674) [µg/mL] | MIC Candida albicans B3 (Candida albicans B3) [µg/mL] | MIC Candida albicans B4 (Candida albicans B4) [µg/mL] | further results
CCN(CC)[C@@H](Cc1ccccc1)C(=O)NC1C(O)C(C)OC(O[C@H]2/C=C/C=C/C=C/C=C/CC/C=C/C=C/[C@H](C)[C@@H](O)[C@@H](C)[C@H](C)OC(=O)C[C@H](O)C[C@H](O)C[C@H](O)CC[C@@H](O)[C@H](O)CC3(O)C[C@H](O)[C@@H](C(=O)O)[C@H](C2)O3)C1O (stereo partly drawn) [Compound N46, N—[L-(N,N-diethyl)phenylalanyl]nystatin A1] | 32 (≈ 28.3 µM) | 2.83 | 4 | 4 (≈ 3.54 µM) | 32 (≈ 28.3 µM) | 16 (≈ 14.2 µM) | 8 | 8 | 16 (≈ 14.2 µM) | 32 (≈ 28.3 µM) | 16 (≈ 14.2 µM) | 32 (≈ 28.3 µM) | 8 (≈ 7.08 µM) | 4 | 4 | 4 (≈ 3.54 µM) | 16 (≈ 14.2 µM) | 32 (≈ 28.3 µM) | 8 (≈ 7.08 µM) | 8 (≈ 7.08 µM) | % of hemolysis at the concentration 60 μg ml^−1 (Human erythrocytes): 0.37%; MIC Candida albicans F2 (Candida albicans F2): 16 µg/mL (≈ 14.2 µM); MIC Candida albicans F5 (Candida albicans F5): 16 µg/mL (≈ 14.2 µM); MIC Candida albicans Gu4 (Candida albicans Gu4): 8 µg/mL (≈ 7.08 µM); MIC Candida albicans Gu5 (Candida albicans Gu5): 16 µg/mL (≈ 14.2 µM); MIC Candida albicans STY19 (Candida albicans STY19): 32 µg/mL (≈ 28.3 µM); MIC Candida albicans STY31 (Candida albicans STY31): 32 µg/mL (≈ 28.3 µM); MIC Candida albicans STY7 (Candida albicans STY7): 32 µg/mL (≈ 28.3 µM); Cytotoxicity IC50 CCRF-CEM (CCRF-CEM): >100 µg/mL; Cytotoxicity IC50 HepG2 (HepG2): >100 µg/mL; Cytotoxicity IC50 LLC-PK1 (LLC-PK1): >100 µg/mL
N-[L-(N,N-dimethyl)phenylalanyl]nystatin A1 [Compound N45] | 8 | 2.83 | 4 | 4 | 8 | 2 | 4 | 8 | 8 | 4 | 4 | 4 | 4 | 4 | 2 | 2 | 16 | 8 | 4 | 4 | % of hemolysis at the concentration 300 μg ml^−1 (Human erythrocytes): 7.11%; EH10 (Human erythrocytes; human erythrocytes, concentration causing 10% of hemolysis): >300 µg/mL; MIC Candida albicans F2 (Candida albicans F2): 8 µg/mL; MIC Candida albicans F5 (Candida albicans F5): 8 µg/mL; MIC Candida albicans Gu4 (Candida albicans Gu4): 4 µg/mL; MIC Candida albicans Gu5 (Candida albicans Gu5): 4 µg/mL; MIC Candida albicans STY19 (Candida albicans STY19): 4 µg/mL; MIC Candida albicans STY31 (Candida albicans STY31): 8 µg/mL; MIC Candida albicans STY7 (Candida albicans STY7): 8 µg/mL; Cytotoxicity IC50 CCRF-CEM (CCRF-CEM): >100 µg/mL; Cytotoxicity IC50 HepG2 (HepG2): >100 µg/mL; Cytotoxicity IC50 LLC-PK1 (LLC-PK1): >100 µg/mL
